Source: ChEMBL document CHEMBL3621051, “Design and synthesis of 4-benzyl-1-(2H)-phthalazinone derivatives as novel androgen receptor antagonists” (Eur J Med Chem, 2015)

Target: Androgen receptor (Mus musculus) (UniProt P19091)
Experiment: Antagonist activity at wild type AR expressed in mouse SC-3 cells assessed as inhibition of 1 nM DHT-induced cell proliferation after 3 days by WST-8 assay; call rule not given here

Sequence of Androgen receptor (Mus musculus) (P19091 whole entry, looked up): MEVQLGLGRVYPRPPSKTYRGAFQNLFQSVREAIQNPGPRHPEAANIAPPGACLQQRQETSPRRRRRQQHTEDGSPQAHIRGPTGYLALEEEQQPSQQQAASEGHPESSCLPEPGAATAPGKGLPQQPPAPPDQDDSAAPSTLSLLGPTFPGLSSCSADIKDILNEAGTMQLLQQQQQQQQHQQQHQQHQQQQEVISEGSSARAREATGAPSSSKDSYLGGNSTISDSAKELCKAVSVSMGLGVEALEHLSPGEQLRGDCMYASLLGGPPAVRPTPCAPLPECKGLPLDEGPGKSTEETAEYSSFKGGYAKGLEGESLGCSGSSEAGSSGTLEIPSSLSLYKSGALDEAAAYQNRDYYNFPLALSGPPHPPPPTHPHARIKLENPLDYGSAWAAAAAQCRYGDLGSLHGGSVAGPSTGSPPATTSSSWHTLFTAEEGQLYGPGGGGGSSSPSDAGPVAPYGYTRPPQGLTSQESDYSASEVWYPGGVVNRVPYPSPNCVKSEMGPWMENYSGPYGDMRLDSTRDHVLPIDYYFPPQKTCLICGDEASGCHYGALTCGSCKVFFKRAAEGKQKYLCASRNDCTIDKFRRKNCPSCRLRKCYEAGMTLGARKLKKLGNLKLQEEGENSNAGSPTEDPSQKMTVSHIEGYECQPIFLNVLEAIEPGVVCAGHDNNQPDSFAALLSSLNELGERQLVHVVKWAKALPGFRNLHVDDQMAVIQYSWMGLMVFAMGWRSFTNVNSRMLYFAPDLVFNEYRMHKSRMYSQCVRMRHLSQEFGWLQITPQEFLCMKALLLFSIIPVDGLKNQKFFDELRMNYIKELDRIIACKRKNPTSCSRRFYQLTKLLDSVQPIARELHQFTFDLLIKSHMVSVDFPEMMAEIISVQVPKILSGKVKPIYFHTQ

Row | Structure (SMILES) | IC50
1 | O=[N+]([O-])c1ccc(Cc2nnc(O)c3ccccc23)cc1 | Not Active
2 | Nc1ccc(Cc2n[nH]c(=O)c3ccccc23)cc1 | Not Active
3 | CC(=O)Nc1ccc(Cc2n[nH]c(=O)c3ccccc23)cc1 | Not Active
4 | O=C(Nc1ccc(Cc2n[nH]c(=O)c3ccccc23)cc1)C(F)(F)F | Not Active
5 | CS(=O)(=O)Nc1ccc(Cc2n[nH]c(=O)c3ccccc23)cc1 | Not Active
6 | CCN(CC)c1ccc(Cc2n[nH]c(=O)c3ccccc23)cc1 | Not Active
7 | CCNc1ccc(Cc2n[nH]c(=O)c3ccccc23)cc1 | Not Active
8 | CN(C)c1ccc(Cc2n[nH]c(=O)c3ccccc23)cc1 | Not Active
9 | CNc1ccc(Cc2n[nH]c(=O)c3ccccc23)cc1 | Not Active
10 | O=C(O)c1ccccc1Cc1n[nH]c(=O)c2ccccc12 | Not Active
11 | CC(=O)Nc1ccccc1Cc1n[nH]c(=O)c2ccccc12 | Not Active
12 | CS(=O)(=O)Nc1ccccc1Cc1n[nH]c(=O)c2ccccc12 | Not Active
